Experimental data published in US20200199579A1, “Rapid Display Method in Translational Synthesis of Peptide” (PeptiDream Inc., priority 2009, published 2020).

How the values were obtained:
[1] = target: T1, Human tumor necrosis factor-alpha (TNF-α) (Homo sapiens, UniProt P01375); assay: Yield of peptide-mRNA complexes presenting TNF-α-DW, recovered with biotinylated TNF-α on streptavidin beads and quantified by real-time PCR; settings: peptide aptamer TNF-α-DW
T1 construct: made in house; host or cells: E. coli (co-expressed with biotin ligase BirA)
Method: In the case where an mRNA is preliminarily prepared by transcription reaction and then translated into a peptide and the resulting peptide is fused to a linker, a peptide-mRNA complex was prepared by the following procedure. First, 4 mM sodium acetate, pH 5.0 and mRNA were mixed in 1:3, and the mixture was heated on a thermoblock at 95° C. for 1 minute and then allowed to stand at room temperature for 5 min. A 25 μM linker solution dissolved in 1 mM sodium acetate was added and the mixture was allowed to stand for 10 minutes to form an mRNA-linker complex. To this were added the other components of the translation system and the mixture was incubated in a constant-temperature water bath (NT-202D, Nissin Scientific Corporation) at 37° C. for 30 minutes, then at room temperature for 12 min, and 0.1 M EDTA (ethylenediaminetetraacetic acid, molecular biology grade, NACALAI TESQUE, INC.) adjusted to pH 7.5 was added at a final concentration of 20 mM, and the mixture was further incubated in the constant-temperature water bath at 37° C. for 30 minutes.
In the case where a cDNA is added to a reaction solution and transcription, translation and fusion to a linker are performed in this reaction solution, a peptide-mRNA complex was prepared by the following procedure. […]

TNF-α = target: T2, TNF-α (Homo sapiens, UniProt P01375); assay: Verification of mapping: recovery from a 100:1 EMP1SS / TNF-α-DW mixture by TNF-α pull-down, PCR and gel electrophoresis; assay type: binding; settings: an21-Phe linker; mRNA or cDNA input; FIG. 6
T2 construct: made in house; host or cells: E. coli (co-expressed with biotin ligase BirA)
Method: This mixture was used to perform experiments similar to those described above, and the recovered DNA was amplified by PCR under the following conditions. That is, 20 μL of a reaction solution containing Taq polymerase and a test sample solution in PCR (taq-) buffer was prepared and reacted by temperature cycling of 30 cycles of {94° C. 40 sec, 61° C. 40 sec, 72° C. 40 sec} (with a slope of 0.5° C./sec from 61° C. to 72° C.) using a thermal cycler. 2.5 μL of the reaction product solution was separated by electrophoresis using a gel consisting of TAE (40 mM Tris-acetate, 1 mM EDTA) and 3% agarose (low electroendosmosis, NACALAI TESQUE, INC.), and electrophoretograms were obtained under a transilluminator after staining with ethidium bromide.
A band derived from the mRNA encoding TNF-α-DW is observed at the position of about 90 bp, while a band derived from the mRNA encoding the control EMP1SS is observed at the position of about 150 bp. When the an21-ACCA linker containing no peptidyl acceptor was used, only a band derived from the mRNA of EMP1SS was observed, reflecting the molar ratio of the two types of cDNA in the initial mixture.

T2 sequence (P01375 with tags, fused parts or gaps): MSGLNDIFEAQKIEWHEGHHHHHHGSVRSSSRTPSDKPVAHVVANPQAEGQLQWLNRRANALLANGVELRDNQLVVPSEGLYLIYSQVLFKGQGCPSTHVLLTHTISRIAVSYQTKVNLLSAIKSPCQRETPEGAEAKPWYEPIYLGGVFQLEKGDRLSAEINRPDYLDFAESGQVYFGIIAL
T1 sequence (P01375 with tags, fused parts or gaps): as above

Substance | yield of peptide-mRNA complexes ([1]; cDNA added to the reaction solution (one-pot transcription/translation), FIG. 5) [%] | yield of peptide-mRNA complexes ([1]; mRNA added to the translation reaction solution, FIG. 4) [%] | binding of the presented peptide to the target protein (TNF-α)
5′-CCCGCCTCCCGCCCCCCGTCC-[SPC18]5-A*-C*-C*-A*-3′ [an21-ACCA] | 0.007 | 0.015 | –
XAAGGTYSSHFGPLTWVSKPQGGAA, wherein X is Ac-D-Trp [EMP1SS, reference compound] | – | – | does not bind to the target
XQRLHCLYLKH (X: Ac-D-Trp) [TNF-α-DW] | – | – | binds to the target protein
